The record followed here is ChEMBL document CHEMBL1201862, “PubChem BioAssay data set” (2004).

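Dose response: 5 concentrations. Exposure: 48 h. Format: 96-well plates. Endpoint: linear interpolation; highest concentration if not reached. GI50 is the concentration that inhibits growth by half.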 Activity calls are given as the source filed them. Cut-off read from the data, not from the text of the source: active = GI50 up to about 1.1 µM and inactive = higher. Where only a bound is given, the exact number is not on record here.

Test systems include SNB-75; SK-MEL-28; COLO 205; CAKI-1; EKVX; RXF 393; UACC-257; 786-0; T47D; OVCAR-4; HOP-92; DU-145; MDA-MB-231; SF-295; M14; MOLT-4; SF-268; MDA-N; LOX IMVI; NCI-H226.
Assay in all cases: DTP human tumour cell line panel, 48 h

As for `CCN(CC)CCn1c(=O)c2ccccc2n2c3c(=O)n(C)c(=O)n(C)c3nc12`, the GI50 with SNB-75 is 1.64 µM (inactive); in the test on SK-MEL-28, 5.15 µM (inactive); with COLO 205, 1.55 µM (inactive); in the test with CAKI-1, 0.252 µM (active); in the test with EKVX, 3.59 µM (inactive); in the test with RXF 393, 5.27 µM (inactive). The GI50 is 3.46 µM (inactive) in the test on UACC-257; 1.32 µM (inactive) with 786-0; 2.15 µM (inactive) in the test on T47D; 4.27 µM (inactive) in the test with OVCAR-4; 1.47 µM (inactive) in the test with HOP-92; 0.771 µM (active) in the test on DU-145. The GI50 in the test with MDA-MB-231 is 5.14 µM (inactive); in the test with SF-295, 1.24 µM (inactive); in the test with M14, 3.16 µM (inactive); in the test with MOLT-4, 0.239 µM (active); in the test on SF-268 it was 2.07 µM (inactive); in the test on MDA-N it was 4.85 µM (inactive). The values for the GI50 in the test on LOX IMVI and in the test with NCI-H226 were 13.2 µM (inactive) and 1.16 µM (inactive), respectively.

Regarding `Cc1ccc(N)c(S)c1`, the GI50 in the test with SNB-75 was 21.7 µM (inactive); with SK-MEL-28 it was 27.5 µM (inactive); in the test with COLO 205, 22.7 µM (inactive); in the test with CAKI-1, 28.8 µM (inactive); with EKVX, 16.2 µM (inactive); in the test with RXF 393, 16.8 µM (inactive). The GI50 in the test with UACC-257 was 23.3 µM (inactive); in the test with 786-0, 16.1 µM (inactive); in the test on T47D, 14.8 µM (inactive); in the test with OVCAR-4 it was 20 µM (inactive); in the test on HOP-92, 16.6 µM (inactive); with DU-145, 15.7 µM (inactive). Also, the GI50 was 17.1 µM (inactive) in the test on MDA-MB-231; 18 µM (inactive) in the test on SF-295; 16.9 µM (inactive) in the test on M14; 22 µM (inactive) in the test with MOLT-4; 20.8 µM (inactive) with SF-268; 14.9 µM (inactive) in the test on MDA-N. For the same molecule, the GI50 with LOX IMVI is 16.4 µM (inactive); with NCI-H226, 22 µM (inactive).

Consider `c1ccc([P+](CCCCCC[P+](c2ccccc2)(c2ccccc2)c2ccccc2)(c2ccccc2)c2ccccc2)cc1`, for which the GI50 with SNB-75 is 5.2 µM (inactive); with SK-MEL-28, 17.5 µM (inactive); with COLO 205 it was 2.68 µM (inactive); with CAKI-1 it was > 100 µM (inactive); with EKVX it was 54.5 µM (inactive); in the test with RXF 393, 11.6 µM (inactive). The GI50 is 1.59 µM (inactive) in the test on UACC-257; 24 µM (inactive) in the test on 786-0; 4.92 µM (inactive) in the test with T47D; 23.3 µM (inactive) in the test on OVCAR-4; 8.32 µM (inactive) in the test on HOP-92; 11.9 µM (inactive) in the test on DU-145. Also, the GI50 is 12.8 µM (inactive) with MDA-MB-231; 59.4 µM (inactive) in the test on SF-295; 28.6 µM (inactive) in the test with M14; 22.9 µM (inactive) in the test with MOLT-4; 3.49 µM (inactive) in the test on SF-268; 16.1 µM (inactive) in the test with MDA-N. Further, the GI50 in the test with LOX IMVI was 12.2 µM (inactive); in the test with NCI-H226 it was 8.87 µM (inactive).

Regarding `Cc1cc(N2CCCCC2)nc2ccc(Cc3ccc4nc(N5CCCCC5)cc(C)c4c3)cc12`, the GI50 in the test with SNB-75 is > 100 µM (inactive); with SK-MEL-28, > 100 µM (inactive); in the test on COLO 205, 44.5 µM (inactive); in the test on CAKI-1, > 100 µM (inactive); in the test on EKVX it was 18.2 µM (inactive); in the test with RXF 393, > 100 µM (inactive). Further, the GI50 is 53.6 µM (inactive) in the test on UACC-257; > 100 µM (inactive) with 786-0; 60.7 µM (inactive) in the test on T47D; > 100 µM (inactive) in the test on OVCAR-4; > 100 µM (inactive) in the test on HOP-92; > 100 µM (inactive) in the test with DU-145. In addition, the GI50 in the test with MDA-MB-231, in the test on SF-295, in the test with M14, with MOLT-4, with SF-268 and in the test with MDA-N was > 100 µM (inactive) in each case. Moreover, the GI50 in the test with LOX IMVI and with NCI-H226 was > 100 µM (inactive) throughout.

For `C#CC(O)/C=C/C(O)CCCC(O)CC#CC(O)C#CC(O)CCCC(O)/C=C/CCCC(=O)CCCCCCCCCCCCCCCC(O)C(O)C#CC(=O)O` (stereo unspecified), the GI50 in the test with SNB-75 was 20.1 µM (inactive); in the test on SK-MEL-28 it was > 50 µM (inactive); with COLO 205, > 50 µM (inactive); with CAKI-1 it was > 50 µM (inactive); with EKVX, > 50 µM (inactive); in the test with RXF 393, > 50 µM (inactive). In addition, the GI50 with UACC-257 was > 50 µM (inactive); in the test with 786-0, > 50 µM (inactive); in the test with T47D it was > 50 µM (inactive); in the test on OVCAR-4, 12.5 µM (inactive); with HOP-92, > 50 µM (inactive); with DU-145, > 50 µM (inactive). Besides, the GI50 is > 50 µM (inactive) in the test on MDA-MB-231; > 50 µM (inactive) in the test with SF-295; > 50 µM (inactive) in the test with M14; 43.6 µM (inactive) with MOLT-4; > 50 µM (inactive) with SF-268; > 50 µM (inactive) in the test on MDA-N. In addition, the GI50 is 10.3 µM (inactive) in the test with LOX IMVI and > 50 µM (inactive) in the test with NCI-H226.

With `O=c1[nH]nc(-c2ccccc2)n1-c1cccc([N+](=O)[O-])c1`, the GI50 is > 100 µM (inactive) in the test on SNB-75; > 100 µM (inactive) in the test on SK-MEL-28; > 100 µM (inactive) in the test on COLO 205; 89.5 µM (inactive) in the test on CAKI-1; > 100 µM (inactive) in the test on EKVX; > 100 µM (inactive) with RXF 393. Also, the GI50 with UACC-257, with 786-0, in the test with T47D, in the test on OVCAR-4, with HOP-92 and in the test on DU-145 was > 100 µM (inactive) each time. Further, the GI50 in the test on MDA-MB-231, in the test with SF-295, in the test with M14, in the test with MOLT-4, in the test with SF-268 and in the test with MDA-N was > 100 µM (inactive) throughout. Moreover, the GI50 in the test with LOX IMVI and in the test with NCI-H226 was > 100 µM (inactive) throughout.

Regarding `O=C(O)C(=O)Cc1ccc2c(c1)OCO2`, the GI50 with SNB-75, with SK-MEL-28, with COLO 205, with CAKI-1, in the test on EKVX and in the test on RXF 393 was > 100 µM (inactive) throughout. Moreover, the GI50 in the test with UACC-257, in the test with 786-0, in the test with T47D, in the test on OVCAR-4, in the test with HOP-92 and with DU-145 was > 100 µM (inactive) each time. Also, the GI50 with MDA-MB-231 is > 100 µM (inactive); in the test with SF-295, > 100 µM (inactive); in the test with M14, > 100 µM (inactive); in the test with MOLT-4, 83.8 µM (inactive); with MDA-N, > 100 µM (inactive); with LOX IMVI it was > 100 µM (inactive). Also, in the test on NCI-H226, the GI50 is 65.5 µM (inactive).

In the case of `O=C(O)c1nc2ccc(C(F)(F)F)cc2nc1NCc1ccc(F)cc1`, the GI50 in the test on SNB-75 was 35.2 µM (inactive); in the test on SK-MEL-28 it was 40.8 µM (inactive); with COLO 205, 21.5 µM (inactive); with CAKI-1, 37.8 µM (inactive); in the test with EKVX, 25.6 µM (inactive); in the test with RXF 393, > 100 µM (inactive). Also, the GI50 is 22.4 µM (inactive) in the test with UACC-257; 14.9 µM (inactive) in the test with 786-0; 20.8 µM (inactive) in the test with T47D; > 100 µM (inactive) in the test on OVCAR-4; 17.1 µM (inactive) with HOP-92; > 100 µM (inactive) in the test on DU-145. For the same molecule, the GI50 is 32.4 µM (inactive) in the test on MDA-MB-231; 23.5 µM (inactive) in the test on SF-295; 18.5 µM (inactive) in the test with M14; 9.23 µM (inactive) in the test with MOLT-4; 28 µM (inactive) with MDA-N; 15.6 µM (inactive) in the test with LOX IMVI. The GI50 in the test on NCI-H226 is 39.5 µM (inactive).

As for `CC1NCCC(CC(=O)O)C1CC(=O)O` (stereo unspecified), the GI50 is 97.9 µM (inactive) in the test on SNB-75; > 100 µM (inactive) in the test on SK-MEL-28; > 100 µM (inactive) with COLO 205; > 100 µM (inactive) in the test with CAKI-1; > 100 µM (inactive) in the test with EKVX; > 100 µM (inactive) in the test with RXF 393. In addition, the GI50 in the test with UACC-257, in the test on 786-0, with T47D, in the test on OVCAR-4, in the test on HOP-92 and with DU-145 was > 100 µM (inactive) in each case. Further, the GI50 in the test with MDA-MB-231, with SF-295, in the test with M14, with SF-268, in the test on MDA-N and in the test on LOX IMVI was > 100 µM (inactive) each time. Also, the GI50 in the test on NCI-H226 was > 100 µM (inactive).

For `C1=C\CCCCN2C[C@H]3CCCC/C=C\CCCCN4CC[C@@H]([C@H](CCCCCC/1)C4)[C@H](C3)C2`, the GI50 in the test with SNB-75 is 2.16 µM (inactive); in the test on SK-MEL-28 it was 1.93 µM (inactive); in the test with COLO 205, 2.07 µM (inactive); with CAKI-1 it was 2.79 µM (inactive); in the test on EKVX it was 7.11 µM (inactive); in the test with RXF 393, 1.52 µM (inactive). The GI50 with UACC-257 was 1.76 µM (inactive); in the test on 786-0, 1.75 µM (inactive); in the test with T47D it was 2.61 µM (inactive); in the test with OVCAR-4, 1.62 µM (inactive); in the test on HOP-92, 2.38 µM (inactive); with DU-145, 5.48 µM (inactive). The GI50 in the test with MDA-MB-231 was 0.979 µM (active); in the test on SF-295, 1.71 µM (inactive); with MOLT-4, 1.49 µM (inactive); in the test on SF-268, 2.65 µM (inactive); in the test on MDA-N, 1.75 µM (inactive); in the test on LOX IMVI it was 1.74 µM (inactive). Also, in the test with NCI-H226, the GI50 was 17.6 µM (inactive).
